Data as given in US11629201B2, “PSMA-binding agents and uses thereof” (ITM Isotope Technologies Munich SE, priority 2017, dated 2023).
Values joined by “and” are separate entries in the source; they are usually repeats but may differ in a detail not shown here. Equal values may be shown once.

What was measured:
mouse plasma proteins = experiment: Ultrafiltration assay, binding to mouse plasma proteins; format: in vitro ADME
Procedure: Filter Assay. […] In addition, the radioligands were diluted in PBS (buffer solution without proteins) as a control experiment. Aliquots of the solutions were loaded onto an ultrafiltration device and centrifuged. The filtered activity was measured with a γ-counter and used for calculating the plasma protein-bound activity (retained on the filter membrane) as the percentage of total added activity. […] Statistical analysis (one-way ANOVA with Bonferroni's multiple comparison post-test) was performed using GraphPad Prism software, version 7. A p-value of <0.05 was considered statistically significant.

[1] = tested on: PSMA-positive PC-3 PIP cells; experiment: Cell uptake and internalization in PSMA-positive PC-3 PIP cells; format: cell-based
human plasma proteins = experiment: Ultrafiltration assay, binding to human plasma proteins; conditions: human plasma, ultrafiltration
Procedure: Therefore, the compounds were labeled with ^177Lu at a specific activity of 50 MBq/nmol and incubated in human plasma samples or PBS at room temperature. The free and plasma-bound fractions were separated using a centrifree ultrafiltration device (4104 centrifugal filter units [Millipore]; 30000 Da nominal molecular weight limit, methylcellulose micropartition membranes). The incubated solution was loaded to the ultrafiltration device and centrifuged at 2500 rpm for 40 min at 20° C. Samples from the filtrate were taken an analyzed for radioactivity in a gamma-counter. The amount of plasma-bound compound was calculated as the fraction of radioactivity measured in the filtrate relative to the corresponding loading solution (set to 100%).
Determination of Albumin-binding Properties. The binding of the radioligands to human plasma proteins was determined by an ultrafiltration assay. […] Three independent experiments were performed in duplicates with both radioligands and the data was fitted to a semi-logarithmic plot (non-linear regression, one-site, specific binding) to obtain the half maximum binding (B50) in GraphPad Prism software (version 7).
The ^177Lu-labeled PSMA ligands (50 MBq/nmol) were diluted in mouse plasma (Rockland, USA) and human plasma (Stiftung Blutspende SRK Aargau-Solothurn, Switzerland), respectively, and incubated for 15 min at room temperature. In addition, the radioligands were diluted in PBS (buffer solution without proteins) as a control experiment. Aliquots of the solutions were loaded onto an ultrafiltration device and centrifuged. The filtered activity was measured with a γ-counter and used for calculating the plasma protein-bound activity (retained on the filter membrane) as the percentage of total added activity. […] Statistical analysis (one-way ANOVA with Bonferroni's multiple comparison post-test) was performed using GraphPad Prism software, version 7. A p-value of <0.05 was considered statistically significant.

[2] = tested on: PC-3 PIP/flu tumor-bearing mice; experiment: Biodistribution studies in PC-3 PIP/flu tumor-bearing mice; conditions: for Tumor-to-blood / Tumor-to-kidney / Tumor-to-liver: PC-3 PIP tumor; for AUC PC-3 PIP tumor / AUC blood / AUC kidneys / AUC liver: non-decay-corrected biodistribution data up to 192 h p.i.; for Ratio of AUCs AUCTu-to-AUCBl: tumor to blood; for Ratio of AUCs AUC-Tu-to-AUC-Ki: tumor to kidneys; for Ratio of AUCs AUCTu-to-AUCLi: tumor to liver

## O=C(O)CCC(NC(=O)NC(CCCCNC(=O)C(Cc1ccc2ccccc2c1)NC(=O)C1CCC(CNC(=O)C(CCCCNC(=O)CN2CCN(CC(=O)O)CCN(CC(=O)O)CCN(CC(=O)O)CC2)NC(=O)CC(NC(=O)CC(NC(=O)CCCc2ccc(I)cc2)C(=O)O)C(=O)O)CC1)C(=O)O)C(=O)O (centres unmarked) [^177Lu-PSMA-ALB-05, metal not drawn]
Mouse plasma proteins
  plasma protein-bound fraction: 77±2.1%
[1]; 2 h
  cell uptake: 52-57%
  internalized fraction: 18-24%
[1]; 4 h
  cell uptake: 60-63%
  internalized fraction: 20-26%
Human plasma proteins
  plasma protein-bound fraction: 95±0.6%
[2]; 1 h p.i.
  Tumor-to-blood: 2.31 ± 0.58
  Tumor-to-kidney: 0.79 ± 0.02
  Tumor-to-liver: 8.65 ± 2.21
[2]; 4 h p.i.
  Blood: 10.2 ± 1.98 % IA/g
  Bone: 1.67 ± 0.27 % IA/g
  Heart: 3.82 ± 0.63 % IA/g
  Intestines: 1.33 ± 0.25 % IA/g
  Kidneys: 52.8 ± 7.17 % IA/g
  Liver: 2.96 ± 0.50 % IA/g
  Lung: 7.07 ± 1.44 % IA/g
  Muscle: 1.30 ± 0.23 % IA/g
  PC-3 PIP Tumor: 75.3 ± 15.3 % IA/g
  PC-3 flu Tumor: 2.10 ± 0.20 % IA/g
  Salivary glands: 2.75 ± 0.72 % IA/g
  Spleen: 3.29 ± 0.74 % IA/g
  Stomach: 1.15 ± 0.17 % IA/g
  Tumor-to-blood: 7.43 ± 1.43
  Tumor-to-kidney: 1.42 ± 0.19
  Tumor-to-liver: 25.6 ± 4.58
[2]; 24 h p.i.
  Blood: 1.67 ± 0.29 % IA/g
  Bone: 0.31 ± 0.08 % IA/g
  Heart: 0.65 ± 0.11 % IA/g
  Intestines: 0.28 ± 0.05 % IA/g
  Kidneys: 23.9 ± 4.02 % IA/g
  Liver: 0.82 ± 0.35 % IA/g
  Lung: 1.80 ± 0.78 % IA/g
  Muscle: 0.19 ± 0.06 % IA/g
  PC-3 PIP Tumor: 79.4 ± 11.1 % IA/g
  PC-3 flu Tumor: 0.59 ± 0.10 % IA/g
  Salivary glands: 0.49 ± 0.10 % IA/g
  Spleen: 1.13 ± 0.23 % IA/g
  Stomach: 0.28 ± 0.06 % IA/g
  Tumor-to-blood: 48.2 ± 7.04 and 48 ± 6.4
  Tumor-to-kidney: 3.38 ± 0.58 and 3.4 ± 0.5
  Tumor-to-liver: 106 ± 28.6 and 106 ± 26
[2]; 48 h p.i.
  Blood: 1.66 ± 0.37 % IA/g
  Bone: 0.28 ± 0.05 % IA/g
  Heart: 0.54 ± 0.15 % IA/g
  Intestines: 0.28 ± 0.10 % IA/g
  Kidneys: 12.8 ± 2.62 % IA/g
  Liver: 0.56 ± 0.16 % IA/g
  Lung: 1.48 ± 0.62 % IA/g
  Muscle: 0.20 ± 0.08 % IA/g
  PC-3 PIP Tumor: 60.3 ± 10.7 % IA/g
  PC-3 flu Tumor: 0.57 ± 0.09 % IA/g
  Salivary glands: 0.45 ± 0.10 % IA/g
  Spleen: 0.71 ± 0.23 % IA/g
  Stomach: 0.29 ± 0.08 % IA/g
  Tumor-to-blood: 36.7 ± 1.81 and 38 ± 2.5
  Tumor-to-kidney: 4.72 ± 0.18 and 5.0 ± 0.7
  Tumor-to-liver: 110 ± 12.2 and 100 ± 32
[2]; 96 h p.i.
  Blood: 1.79 ± 0.57 % IA/g
  Bone: 0.28 ± 0.04 % IA/g
  Heart: 0.70 ± 0.21 % IA/g
  Intestines: 0.30 ± 0.11 % IA/g
  Kidneys: 6.89 ± 0.31 % IA/g
  Liver: 0.74 ± 0.14 % IA/g
  Lung: 1.36 ± 0.29 % IA/g
  Muscle: 0.15 ± 0.06 % IA/g
  PC-3 PIP Tumor: 45.0 ± 7.94 % IA/g
  PC-3 flu Tumor: 0.49 ± 0.11 % IA/g
  Salivary glands: 0.46 ± 0.10 % IA/g
  Spleen: 0.64 ± 0.29 % IA/g
  Stomach: 0.24 ± 0.07 % IA/g
  Tumor-to-blood: 27.1 ± 10.0
  Tumor-to-kidney: 6.51 ± 0.98
  Tumor-to-liver: 62.8 ± 18.8
[2]; 144 h p.i.
  Blood: 1.75 ± 0.35 % IA/g
  Bone: 0.25 ± 0.05 % IA/g
  Heart: 0.65 ± 0.17 % IA/g
  Intestines: 0.27 ± 0.05 % IA/g
  Kidneys: 4.28 ± 0.26 % IA/g
  Liver: 0.72 ± 0.13 % IA/g
  Lung: 1.25 ± 0.18 % IA/g
  Muscle: 0.17 ± 0.04 % IA/g
  PC-3 PIP Tumor: 33.9 ± 0.80 % IA/g
  PC-3 flu Tumor: 0.52 ± 0.13 % IA/g
  Salivary glands: 0.46 ± 0.09 % IA/g
  Spleen: 0.56 ± 0.08 % IA/g
  Stomach: 0.23 ± 0.04 % IA/g
  Tumor-to-blood: 19.9 ± 3.88
  Tumor-to-kidney: 7.93 ± 0.30
  Tumor-to-liver: 47.9 ± 8.28
[2]; 192 h p.i.
  Blood: 1.48 ± 0.13 % IA/g
  Bone: 0.26 ± 0.04 % IA/g
  Heart: 0.59 ± 0.05 % IA/g
  Intestines: 0.24 ± 0.04 % IA/g
  Kidneys: 2.70 ± 0.36 % IA/g
  Liver: 0.84 ± 0.06 % IA/g
  Lung: 1.22 ± 0.26 % IA/g
  Muscle: 0.14 ± 0.01 % IA/g
  PC-3 PIP Tumor: 27.9 ± 3.24 % IA/g
  PC-3 flu Tumor: 0.45 ± 0.06 % IA/g
  Salivary glands: 0.37 ± 0.04 % IA/g
  Spleen: 0.55 ± 0.10 % IA/g
  Stomach: 0.16 ± 0.04 % IA/g
  Tumor-to-blood: 19.0 ± 2.97
  Tumor-to-kidney: 10.4 ± 0.25
  Tumor-to-liver: 33.4 ± 1.64
[2]
  AUC PC-3 PIP tumor: 6741 ± 421 % IA/g · h
  AUC blood: 387 ± 32 % IA/g · h
  AUC kidneys: 1837 ± 112 % IA/g · h
  AUC liver: 131 ± 11 % IA/g · h
  Ratio of AUCs AUCTu-to-AUCBl: 17
  Ratio of AUCs AUC-Tu-to-AUC-Ki: 3.7
  Ratio of AUCs AUCTu-to-AUCLi: 52

## O=C(O)CCC(NC(=O)NC(CCCCNC(=O)C(Cc1ccc2ccccc2c1)NC(=O)C1CCC(CNC(=O)C(CCCCNC(=O)CN2CCN(CC(=O)O)CCN(CC(=O)O)CCN(CC(=O)O)CC2)NC(=O)CC(NC(=O)CC(NC(=O)CC(NC(=O)CCCc2ccc(I)cc2)C(=O)O)C(=O)O)C(=O)O)CC1)C(=O)O)C(=O)O (centres unmarked) [^177Lu-PSMA-ALB-07, metal not drawn]
Mouse plasma proteins
  plasma protein-bound fraction: 64±2.1%
[1]; 2 h
  cell uptake: 52-57%
  internalized fraction: 18-24%
[1]; 4 h
  cell uptake: 60-63%
  internalized fraction: 20-26%
Human plasma proteins
  plasma protein-bound fraction: 95±0.1%
[2]; 4 h p.i.
  Blood: 6.67 ± 2.04 % IA/g
  Bone: 1.30 ± 0.27 % IA/g
  Heart: 2.43 ± 0.78 % IA/g
  Intestines: 1.27 ± 0.45 % IA/g
  Kidneys: 67.0 ± 9.50 % IA/g
  Liver: 1.94 ± 1.02 % IA/g
  Lung: 4.67 ± 0.92 % IA/g
  Muscle: 0.78 ± 0.22 % IA/g
  PC-3 PIP Tumor: 63.5 ± 27.4 % IA/g
  PC-3 flu Tumor: 1.80 ± 0.27 % IA/g
  Salivary glands: 2.09 ± 0.50 % IA/g
  Spleen: 3.41 ± 1.46 % IA/g
  Stomach: 1.09 ± 0.30 % IA/g
  Tumor-to-blood: 9327 ± 1.75
  Tumor-to-kidney: 0.88 ± 0.28
  Tumor-to-liver: 33.6 ± 6.56
[2]; 24 h p.i.
  Blood: 0.79 ± 0.08 % IA/g
  Bone: 0.31 ± 0.10 % IA/g
  Heart: 0.40 ± 0.00 % IA/g
  Intestines: 0.20 ± 0.03 % IA/g
  Kidneys: 51.9 ± 6.34 % IA/g
  Liver: 0.52 ± 0.04 % IA/g
  Lung: 0.73 ± 0.06 % IA/g
  Muscle: 0.13 ± 0.01 % IA/g
  PC-3 PIP Tumor: 84.6 ± 14.2 % IA/g
  PC-3 flu Tumor: 0.80 ± 0.17 % IA/g
  Salivary glands: 0.43 ± 0.04 % IA/g
  Spleen: 1.14 ± 0.04 % IA/g
  Stomach: 0.18 ± 0.06 % IA/g
  Tumor-to-blood: 107 ± 12.2 and 107 ± 10
  Tumor-to-kidney: 1.64 ± 0.29 and 1.6 ± 0.2
  Tumor-to-liver: 162 ± 17.3 and 162 ± 14
[2]; 48 h p.i.
  Tumor-to-blood: 154 ± 7
  Tumor-to-kidney: 2.3 ± 0.1
  Tumor-to-liver: 131 ± 13
[2]; 72 h p.i.
  Blood: 0.40 ± 0.06 % IA/g
  Bone: 0.31 ± 0.06 % IA/g
  Heart: 0.21 ± 0.01 % IA/g
  Intestines: 0.10 ± 0.01 % IA/g
  Kidneys: 26.0 ± 1.58 % IA/g
  Liver: 0.44 ± 0.08 % IA/g
  Lung: 0.43 ± 0.02 % IA/g
  Muscle: 0.08 ± 0.01 % IA/g
  PC-3 PIP Tumor: 62.6 ± 6.35 % IA/g
  PC-3 flu Tumor: 0.43 ± 0.04 % IA/g
  Salivary glands: 0.21 ± 0.01 % IA/g
  Spleen: 0.49 ± 0.03 % IA/g
  Stomach: 0.10 ± 0.01 % IA/g
  Tumor-to-blood: 160 ± 37.0
  Tumor-to-kidney: 2.41 ± 0.18
  Tumor-to-liver: 147 ± 38.4
[2]
  AUC PC-3 PIP tumor: 7007 ± 459 % IA/g · h
  AUC blood: 180 ± 7.2 % IA/g · h
  AUC kidneys: 3395 ± 201 % IA/g · h
  AUC liver: 72 ± 3.6 % IA/g · h
  Ratio of AUCs AUCTu-to-AUCBl: 39
  Ratio of AUCs AUC-Tu-to-AUC-Ki: 2.1
  Ratio of AUCs AUCTu-to-AUCLi: 97
